24 compounds from ChEMBL document CHEMBL3763028, “Anionic fluoroquinolones as antibacterials against biofilm-producing Pseudomonas aeruginosa” (2016) can be followed below.

The MBC is the lowest tested concentration that kills the bacteria rather than only halting them. A word on the MIC: it is the least concentration at which growth counts as inhibited.

Structures are written as SMILES. ≈ marks a conversion by molar mass, not a printed value.

Common to all, as to format: functional
The test system of experiment [1] is Pseudomonas aeruginosa. As to the kind of experiment: Antipseudomonal activity against Pseudomonas aeruginosa PAO1 in Pseudomonas isolation agar assessed as bacterial growth inhibition at 10 uM by disk diffusion assay. The following applies: read-out: DIZ. A general note: A growth-free zone around the sample is the usual read-out of agar diffusion tests.
Experiment [2] relates to Pseudomonas aeruginosa. Briefly: Antipseudomonal activity against Pseudomonas aeruginosa PAO581 in Pseudomonas isolation agar assessed as bacterial growth inhibition at 10 uM by disk diffusion assay. The following applies: read-out: DIZ.
For experiment [3], the system named is Pseudomonas aeruginosa. Briefly: Antipseudomonal activity against Pseudomonas aeruginosa PAO1 in Luria-Bertani agar assessed as bacterial growth inhibition at 10 uM by disk diffusion assay. As to conditions: read-out: DIZ.
Experiment [4] deals with Pseudomonas aeruginosa. As to the kind of experiment: Antipseudomonal activity against Pseudomonas aeruginosa PAO581 in Luria-Bertani agar assessed as bacterial growth inhibition at 10 uM by disk diffusion assay. As to conditions: read-out: DIZ.
Experiment [5] deals with Pseudomonas aeruginosa. Briefly: Bactericidal activity against Pseudomonas aeruginosa PAO581 in Luria-Bertani broth by microdilution method.
Experiment [6] deals with Pseudomonas aeruginosa. Briefly: Bactericidal activity against Pseudomonas aeruginosa PAO1 in Luria-Bertani broth by microdilution method.
The test system of experiment [7] is Pseudomonas aeruginosa. As to the kind of experiment: Antipseudomonal activity against Pseudomonas aeruginosa PAO581 in Luria-Bertani broth by microdilution method. (In general: Broth dilution looks for growth in wells or tubes with falling amounts of substance.)
For experiment [8], the system named is Pseudomonas aeruginosa. Briefly: Antipseudomonal activity against Pseudomonas aeruginosa PAO1 in Luria-Bertani broth by microdilution method.
The test system of experiment [9] is Pseudomonas aeruginosa. As to the kind of experiment: Antipseudomonal activity against Pseudomonas aeruginosa PAO1 in Pseudomonas isolation agar assessed as reduction in inhibitory zone size at 10 uM by disk diffusion assay relative to Luria-Bertani agar. On the set-up: scale not given: the % may be the effect or the level left.
Experiment [10] has as its system Pseudomonas aeruginosa. As to the kind of experiment: Antipseudomonal activity against Pseudomonas aeruginosa PAO581 in Pseudomonas isolation agar assessed as reduction in inhibitory zone size at 10 uM by disk diffusion assay relative to Luria-Bertani agar. On the set-up: scale not given: the % may be the effect or the level left.

For the compound `O=C(O)CCCC(=O)N1CCN(c2cc3c(cc2F)c(=O)c(C(=O)O)cn3C2CC2)CC1`, the zone of inhibition at 10 µM in the experiment with Pseudomonas aeruginosa [1], in the experiment with Pseudomonas aeruginosa [2], in the experiment with Pseudomonas aeruginosa [3] and in the experiment on Pseudomonas aeruginosa [4] was 0 mm each time.
In the case of `O=C(O)c1cn(C2CC2)c2cc(N3CCN(Cc4ccccc4)CC3)c(F)cc2c1=O`, the zone of inhibition at 10 µM turned out to be 0 mm in the experiment with Pseudomonas aeruginosa [1], 0 mm in the experiment with Pseudomonas aeruginosa [2], 0 mm in the experiment on Pseudomonas aeruginosa [3] and 13 mm in the experiment on Pseudomonas aeruginosa [4].
For `COc1c(N2C[C@@H]3CCCN[C@@H]3C2)c(F)cc2c(=O)c(C(=O)O)cn(C3CC3)c12`, the zone of inhibition at 10 µM was found to be 10 mm with Pseudomonas aeruginosa [1], 14 mm in the experiment on Pseudomonas aeruginosa [2], 24 mm in the experiment on Pseudomonas aeruginosa [3] and 31 mm in the experiment on Pseudomonas aeruginosa [4].
As for `COc1c(N2CCN(C(C)=O)C(C)C2)c(F)cc2c(=O)c(C(=O)O)cn(C3CC3)c12` (stereo unspecified), the zone of inhibition at 10 µM with Pseudomonas aeruginosa [1], in the experiment on Pseudomonas aeruginosa [2], with Pseudomonas aeruginosa [3] and in the experiment on Pseudomonas aeruginosa [4] was 0 mm in each case.
As to `COc1c(N2C[C@@H]3CCCN(C(C)=O)[C@@H]3C2)c(F)cc2c(=O)c(C(=O)O)cn(C3CC3)c12`, the zone of inhibition at 10 µM in the experiment on Pseudomonas aeruginosa [1], in the experiment with Pseudomonas aeruginosa [2], with Pseudomonas aeruginosa [3] and with Pseudomonas aeruginosa [4] was 0 mm each time.
For the compound `CCCCN1CCN(c2cc3c(cc2F)c(=O)c(C(=O)O)cn3C2CC2)CC1`, the zone of inhibition at 10 µM turned out to be 0 mm with Pseudomonas aeruginosa [1], 0 mm in the experiment with Pseudomonas aeruginosa [2], 23 mm in the experiment on Pseudomonas aeruginosa [3] and 13 mm in the experiment with Pseudomonas aeruginosa [4].
Take `O=CN1CCN(c2cc3c(cc2F)c(=O)c(C(=O)O)cn3C2CC2)CC1`: the MBC with Pseudomonas aeruginosa [5] and in the experiment on Pseudomonas aeruginosa [6] was 6.25 µM (≈ 2.25 µg/mL) throughout. The MIC against Pseudomonas aeruginosa [7] and with Pseudomonas aeruginosa [8] was 3.12 µM (≈ 1.12 µg/mL) in each case. The zone of inhibition at 10 µM with Pseudomonas aeruginosa [1] is 20 mm; in the experiment with Pseudomonas aeruginosa [2], 9 mm; in the experiment on Pseudomonas aeruginosa [3], 18 mm; in the experiment with Pseudomonas aeruginosa [4], 21 mm.
As for `CC(=O)NC1(c2c(F)cc3c(=O)c(C(=O)O)cn4c3c2OC[C@@H]4C)CC1`, the zone of inhibition at 10 µM in the experiment with Pseudomonas aeruginosa [1], in the experiment with Pseudomonas aeruginosa [2], with Pseudomonas aeruginosa [3] and with Pseudomonas aeruginosa [4] was 0 mm each time.
Regarding `CC1(C)S[C@@H]2[C@H](NC(=O)[C@H](C(=O)O)c3ccsc3)C(=O)N2[C@H]1C(=O)O`, the zone of inhibition at 10 µM in the experiment with Pseudomonas aeruginosa [1], in the experiment on Pseudomonas aeruginosa [2], in the experiment on Pseudomonas aeruginosa [3] and in the experiment on Pseudomonas aeruginosa [4] was 0 mm throughout.
Turning to `CCn1cc(C(=O)O)c(=O)c2cc(F)c(N3CCNC(C)C3)c(F)c21` (stereo unspecified), the zone of inhibition at 10 µM in the experiment on Pseudomonas aeruginosa [1] was found to be 12 mm; in the experiment with Pseudomonas aeruginosa [2], 15 mm; in the experiment on Pseudomonas aeruginosa [3], 23 mm; in the experiment on Pseudomonas aeruginosa [4], 29 mm.
For the compound `O=C([O-])c1ccccc1C(=O)N1CCN(c2cc3c(cc2F)c(=O)c(C(=O)[O-])cn3C2CC2)CC1.[K+].[K+]`, the MBC in the experiment on Pseudomonas aeruginosa [5] worked out at 12.5 µM; in the experiment on Pseudomonas aeruginosa [6], 6.25 µM. For the same compound, the Activity with Pseudomonas aeruginosa [9] was 53%; in the experiment with Pseudomonas aeruginosa [10] it was 58%. The MIC against Pseudomonas aeruginosa [7] and against Pseudomonas aeruginosa [8] was 3.12 µM throughout. Further, the zone of inhibition at 10 µM in the experiment with Pseudomonas aeruginosa [1] is 11 mm; in the experiment on Pseudomonas aeruginosa [2], 13 mm; in the experiment with Pseudomonas aeruginosa [3] it was 23 mm; in the experiment on Pseudomonas aeruginosa [4], 31 mm.
For the compound `C[C@H]1COc2c(C3(N)CC3)c(F)cc3c(=O)c(C(=O)O)cn1c23`, the zone of inhibition at 10 µM amounted to 17 mm in the experiment on Pseudomonas aeruginosa [1], 20 mm in the experiment with Pseudomonas aeruginosa [2], 25 mm in the experiment with Pseudomonas aeruginosa [3] and 30 mm with Pseudomonas aeruginosa [4].
Regarding `O=C([O-])c1cn(C2CC2)c2cc(N3CCNCC3)c(F)cc2c1=O.[K+]`, the MBC in the experiment on Pseudomonas aeruginosa [5] and against Pseudomonas aeruginosa [6] was 6.25 µM in each case. In addition, the Activity was 20% in the experiment with Pseudomonas aeruginosa [9] and 32% in the experiment on Pseudomonas aeruginosa [10]. Moreover, the MIC in the experiment with Pseudomonas aeruginosa [7] and in the experiment with Pseudomonas aeruginosa [8] was 1.56 µM throughout. In addition, the zone of inhibition at 10 µM in the experiment with Pseudomonas aeruginosa [1] was found to be 24 mm; in the experiment on Pseudomonas aeruginosa [2], 26 mm; with Pseudomonas aeruginosa [3], 30 mm; in the experiment on Pseudomonas aeruginosa [4], 38 mm.
On to `COC(=O)CN1CCN(c2cc3c(cc2F)c(=O)c(C(=O)O)cn3C2CC2)CC1`, for which the zone of inhibition at 10 µM in the experiment on Pseudomonas aeruginosa [1], in the experiment on Pseudomonas aeruginosa [2], in the experiment on Pseudomonas aeruginosa [3] and in the experiment on Pseudomonas aeruginosa [4] was 0 mm in each case.
Regarding `CCn1cc(C(=O)O)c(=O)c2cc(F)c(N3CCN(C(C)=O)C(C)C3)c(F)c21` (stereo unspecified), the zone of inhibition at 10 µM in the experiment with Pseudomonas aeruginosa [1], in the experiment on Pseudomonas aeruginosa [2], with Pseudomonas aeruginosa [3] and in the experiment with Pseudomonas aeruginosa [4] was 0 mm in each case.
Turning to `COc1c(N2CCNC(C)C2)c(F)cc2c(=O)c(C(=O)O)cn(C3CC3)c12` (stereo unspecified), the zone of inhibition at 10 µM in the experiment with Pseudomonas aeruginosa [1] was 21 mm; in the experiment on Pseudomonas aeruginosa [2], 23 mm; in the experiment on Pseudomonas aeruginosa [3] it was 29 mm; in the experiment with Pseudomonas aeruginosa [4] it was 31 mm.
Consider `NC[C@H]1O[C@H](O[C@H]2[C@H](O)[C@@H](O[C@H]3O[C@H](CO)[C@@H](O)[C@H](N)[C@H]3O)[C@H](N)C[C@@H]2N)[C@H](N)C[C@@H]1O`, for which the MBC in the experiment with Pseudomonas aeruginosa [5] was determined as 6.25 µM (≈ 2.92 µg/mL); against Pseudomonas aeruginosa [6], 1.56 µM (≈ 0.729 µg/mL). Also, the minimum inhibitory concentration (MIC) against Pseudomonas aeruginosa [7] amounted to 0.78 µM (≈ 0.365 µg/mL); against Pseudomonas aeruginosa [8], 3.12 µM (≈ 1.46 µg/mL). For the same compound, the zone of inhibition at 10 µM is 13 mm in the experiment with Pseudomonas aeruginosa [1], 17 mm in the experiment on Pseudomonas aeruginosa [2], 18 mm in the experiment on Pseudomonas aeruginosa [3] and 20 mm in the experiment with Pseudomonas aeruginosa [4].
For `CCn1cc(C(=O)O)c(=O)c2cc(F)c(N3CCN(C)CC3)cc21`, the zone of inhibition at 10 µM came to 12 mm in the experiment on Pseudomonas aeruginosa [1], 14 mm with Pseudomonas aeruginosa [2], 18 mm in the experiment with Pseudomonas aeruginosa [3] and 19 mm in the experiment on Pseudomonas aeruginosa [4].
As for `O=C(O)CN1CCN(c2cc3c(cc2F)c(=O)c(C(=O)O)cn3C2CC2)CC1`, the zone of inhibition at 10 µM in the experiment on Pseudomonas aeruginosa [1], in the experiment on Pseudomonas aeruginosa [2], in the experiment with Pseudomonas aeruginosa [3] and in the experiment with Pseudomonas aeruginosa [4] was 0 mm in each case.
In the case of `O=C(O)CCCN1CCN(c2cc3c(cc2F)c(=O)c(C(=O)O)cn3C2CC2)CC1`, the zone of inhibition at 10 µM in the experiment on Pseudomonas aeruginosa [1], in the experiment with Pseudomonas aeruginosa [2], in the experiment on Pseudomonas aeruginosa [3] and with Pseudomonas aeruginosa [4] was 0 mm each time.
Consider `O=C(O)CCC(=O)N1CCN(c2cc3c(cc2F)c(=O)c(C(=O)O)cn3C2CC2)CC1`, for which the zone of inhibition at 10 µM in the experiment on Pseudomonas aeruginosa [1], in the experiment with Pseudomonas aeruginosa [2], in the experiment on Pseudomonas aeruginosa [3] and with Pseudomonas aeruginosa [4] was 0 mm in each case.
On to `CCCCCCN1CCN(c2cc3c(cc2F)c(=O)c(C(=O)O)cn3C2CC2)CC1`, for which the zone of inhibition at 10 µM in the experiment on Pseudomonas aeruginosa [1], in the experiment on Pseudomonas aeruginosa [2], in the experiment with Pseudomonas aeruginosa [3] and in the experiment on Pseudomonas aeruginosa [4] was 0 mm each time.
Turning to `CC(=O)N1CCN(c2cc3c(cc2F)c(=O)c(C(=O)O)cn3C2CC2)CC1`, the zone of inhibition at 10 µM with Pseudomonas aeruginosa [1] stood at 0 mm; with Pseudomonas aeruginosa [2], 13 mm; in the experiment on Pseudomonas aeruginosa [3], 10 mm; with Pseudomonas aeruginosa [4], 0 mm.
On to `COC(=O)CCCN1CCN(c2cc3c(cc2F)c(=O)c(C(=O)O)cn3C2CC2)CC1`, for which the zone of inhibition at 10 µM was 6 mm in the experiment on Pseudomonas aeruginosa [1], 9 mm in the experiment on Pseudomonas aeruginosa [2], 16 mm in the experiment on Pseudomonas aeruginosa [3] and 17 mm in the experiment with Pseudomonas aeruginosa [4].
